Assay results published in article PMC11992225, “Antibacterial compounds against non-growing and intracellular bacteria” (npj Antimicrobials and Resistance, 2025).
In brackets after ≈: the same amount, converted by molar mass. Read-outs that look alike come from different tables or passages of the source.

Key:
E. coli CFT073 (UPEC) = assay: MIC, standard microdilution assay, growing UPEC; assay type: cell-based, Escherichia coli
Method in brief: (§1)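 Each strain was exposed to serially diluted compound in broth, in triplicate. The media were TSB for Shigella; CA-MHB at pH 7.4 (HEPES 40 mM) for S. aureus, P. aeruginosa and UPEC; and, for UPEC only, low-pH LPM (pH 5.5, 30 mM MES).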

P. aeruginosa DSM1117 = assay: MIC, standard microdilution assay, growing P. aeruginosa; assay type: cell-based, Pseudomonas aeruginosa
Method in brief: as §1

S. flexneri 5a M90T = assay: MIC in tryptic soy broth, S. flexneri; assay type: cell-based, Shigella flexneri; conditions: for MIC: Shigella flexneri, 5AM90T, read-out: MIC (μM) TSB
Method in brief: as §1

S. aureus DSM2569 = assay: MIC, standard microdilution assay, growing S. aureus; assay type: cell-based, Staphylococcus aureus
Method in brief: as §1

[1] = tested on: non-growing P. aeruginosa DSM1117; assay: Dilution-regrowth assay (OD600, start-growth-time) on stationary-phase P. aeruginosa; assay type: cell-based, Pseudomonas aeruginosa
Protocol: To determine the spectrum of activity of the compounds that were effective against non-growing UPEC, we further assessed their efficacy against the well-characterized Gram-negative and Gram-positive reference strains P. aeruginosa DSM1117 and S. aureus DSM2569, respectively. The cultures were grown and treated for 24 h in 1:4 CA-MHB (pH 7.4). […].
For better characterization of the compounds causing the strongest regrowth delay, we performed the regrowth step of the dilution-regrowth experiments on a plate reader, measuring the OD600 at 20-min intervals for over 20 h instead of using an endpoint measurement. This approach allowed us to capture the time when cultures reached a threshold optical density (start-growth-time, SGT[15]).
Overnight cultures of UPEC, P. aeruginosa and S. aureus were grown in test tubes containing 3 ml of LB broth (~16 h), then diluted 1:100 into either 1:4 diluted CA-MHB medium buffered with 40 mM HEPES (pH 7.4) or, in case of UPEC, into LPM medium[25] supplemented with 49 µM MgCl2 and buffered with 30 mM MES (pH 5.5). The cultures were incubated for 24 h in non-baffled Erlenmeyer flasks at 37 °C with shaking at 200 rpm.
For P. aeruginosa and S. aureus, dose–response analysis was conducted in 96-well plates with a 200 μl assay volume, following the procedure used for screening assay validation experiments. Aliquots of the 39 compounds active against non-growing UPEC were obtained from SelleckChem and MedChem Express. Stock solutions were prepared and stored according to the manufacturers’ instructions, then diluted in 10% DMSO before use. Cultures were incubated for 24 h in 1:4 diluted CA-MHB medium under the same conditions used for UPEC cultivation. In preliminary experiments, each compound was tested at a concentration of 20 μM in the dilution-regrowth assay with 4 technical replicates. Regrowth was monitored using a microplate reader at 37 °C with continuous shaking, and OD600 was recorded every 20 min. The time at which OD600 exceeded the threshold of 0.12 was recorded as the Start_Growth-Time.
The statistical analysis of all data, as well as EC50 and IC50 determination, was conducted using GraphPad Prism 10.2.3. Statistical significance of the drug effects was assessed using a one-way ANOVA followed by Dunnett’s test, comparing each treatment to the drug-free control. Statistical significance of the differences in chemical characteristics between the hit compounds and the Prestwick library was assessed using a Mann–Whitney test. Statistical significance was set at P ≤ 0.05. A five-parameter logistic equation was used for asymmetric sigmoidal curve fitting and for EC50 and IC50 determination. The Venn diagram in Fig. 1F was prepared using BioVenn web application. Characteristics of the chemical and physical properties of Prestwick library compounds were obtained from Supplementary Table S1 from reference. Characteristics of the hit compounds not included in the Prestwick library were retrieved from the PubChem database.

[2] = Escherichia coli, E. coli, pH 7.4, CA-MHB, read-out: MIC (μM) CA-MHB
[3] = Pseudomonas aeruginosa, DSM1117, P. aeruginosa, 1:4 diluted CA-MHB pH 7.4, read-out: MIC (μM) 1:4 CA-MHB
[4] = Pseudomonas aeruginosa, DSM1117, P. aeruginosa, CA-MHB pH 7.4, read-out: MIC (μM) CA-MHB
[5] = Staphylococcus aureus, DSM2569, S. aureus, CA-MHB pH 7.4, read-out: MIC (μM) CA-MHB
[6] = Pseudomonas aeruginosa, DSM1117, P. aeruginosa, regrowth delay of non-growing bacteria, 1:4 CA-MHB pH 7.4, 24 h treatment, OD600 8 h after dilution, read-out: EC50
[7] = P. aeruginosa, drug concentration 0.1
[8] = P. aeruginosa, drug concentration 0.5
[9] = P. aeruginosa, drug concentration 2.5
[10] = P. aeruginosa, drug concentration 10
[11] = Escherichia coli, E. coli, LPM pH 5.5, read-out: MIC
[12] = Escherichia coli, E. coli, pH 7.4, 1:4 diluted CA-MHB, read-out: MIC (μM) 1:4 CA-MHB

Structure (SMILES)	MIC (E. coli CFT073 (UPEC); [2]) [µM]	MIC (P. aeruginosa DSM1117; [3]) [µM]	MIC (P. aeruginosa DSM1117; [4]) [µM]	MIC (S. flexneri 5a M90T) [µM]	MIC (S. aureus DSM2569; [5]) [µM]	EC50 [1, 6] [nM]	further results
COc1c(N2CCNC(C)C2)c(F)cc2c(=O)c(C(=O)O)cn(C3CC3)c12 (stereo not shown) [Gatifloxacin]	0.125 (≈ 0.0469 µg/mL)	4 (≈ 1.5 µg/mL)	4 (≈ 1.5 µg/mL)	0.0312 (≈ 0.0117 µg/mL)	0.5 (≈ 0.188 µg/mL)	182	
CC(=O)[O][Pt]([NH2])([Cl])([Cl])([NH]C1CCCCC1)[O]C(C)=O [Satraplatin]							MIC (E. coli CFT073 (UPEC); E. coli, LPM pH 5.5, read-out: MIC): 32 µM; MIC (E. coli CFT073 (UPEC); E. coli, pH 7.4, CA-MHB, read-out: MIC (μM) CA-MHB): >160 µM; MIC (P. aeruginosa DSM1117; P. aeruginosa, CA-MHB pH 7.4, read-out: MIC (μM) CA-MHB): 160 µM; MIC (μM) TSB (S. flexneri 5a M90T; S. flexneri, extracellular bacteria in TSB): 128 µM; MIC (S. aureus DSM2569; S. aureus, CA-MHB pH 7.4, read-out: MIC (μM) CA-MHB): 80 µM; Regrowth, OD600 at 6h or 8h after dilution into drug-free medium (average) [1, 7]: 0.622; Regrowth, OD600 at 6h or 8h after dilution into drug-free medium (average) [1, 8]: 0.518; Regrowth, OD600 at 6h or 8h after dilution into drug-free medium (average) [1, 9]: 0.207; Regrowth, OD600 at 6h or 8h after dilution into drug-free medium (average) [1, 10]: 0.094; EC50 ([1]; P. aeruginosa, regrowth delay of non-growing bacteria, 1:4 CA-MHB pH 7.4, 24 h treatment, OD600 8 h after dilution, read-out: EC50): 1200 nM
CO[C@H]1/C=C/O[C@@]2(C)Oc3c(C)c(O)c4c(O)c(c(/C=N/N5CCN(C)CC5)c(O)c4c3C2=O)NC(=O)/C(C)=C\C=C\[C@H](C)[C@H](O)[C@@H](C)[C@@H](O)[C@@H](C)[C@H](OC(C)=O)[C@@H]1C [Rifampicin]	8 (≈ 6.58 µg/mL)		80 (≈ 65.8 µg/mL)	8 (≈ 6.58 µg/mL)	0.0125 (≈ 0.0103 µg/mL)		MIC (μM) CA-MHB +PAβN (E. coli CFT073 (UPEC); E. coli, pH 7.4, CA-MHB with 10 μg/ml efflux pump inhibitor PaβN): 1 µM (≈ 0.823 µg/mL); MIC (E. coli CFT073 (UPEC); [11]): 0.5 µM (≈ 0.411 µg/mL); MIC (E. coli CFT073 (UPEC); [12]): 5 µM (≈ 4.11 µg/mL)
CC[C@H]1OC(=O)C[C@@H](O)[C@H](C)[C@@H](O[C@@H]2O[C@H](C)C[C@H](N(C)C)[C@H]2O)[C@@H](CC=O)C[C@@H](C)C(=O)/C=C/[C@]2(C)O[C@H]2[C@@H]1C [Rosamicin]	25 (≈ 14.5 µg/mL)	100 (≈ 58.2 µg/mL)	> 100	16 (≈ 9.31 µg/mL)	2 (≈ 1.16 µg/mL)	2300	MIC (E. coli CFT073 (UPEC); [12]): 6.25 µM (≈ 3.64 µg/mL)
C[C@@H]1CN(c2c(F)c(N)c3c(=O)c(C(=O)O)cn(C4CC4)c3c2F)C[C@H](C)N1 [Sparfloxacin]	0.025 (≈ 0.00981 µg/mL)	2 (≈ 0.785 µg/mL)	2 (≈ 0.785 µg/mL)	0.0312 (≈ 0.0123 µg/mL)	0.25 (≈ 0.0981 µg/mL)	381	
CC1COc2c(N3CCN(C)CC3)c(F)cc3c(=O)c(C(=O)O)cn1c23 (stereo not shown) [Ofloxacin]	0.25 (≈ 0.0903 µg/mL)		8 (≈ 2.89 µg/mL)	0.125 (≈ 0.0452 µg/mL)	2 (≈ 0.723 µg/mL)		
CO[C@@]12[C@H](COC(N)=O)C3=C(C(=O)C(C)=C(N)C3=O)N1C[C@@H]1N[C@@H]12 [Mitomycin C]				1 (≈ 0.334 µg/mL)			MIC (E. coli CFT073 (UPEC); Escherichia coli, pH 5.5): 0.5 µM (≈ 0.167 µg/mL); MIC (E. coli CFT073 (UPEC); Escherichia coli, pH 7.4, read-out: MIC (μM) CA-MHB): 2 µM (≈ 0.669 µg/mL); MIC (P. aeruginosa DSM1117; Pseudomonas aeruginosa, DSM1117, pH 7.4, read-out: MIC (μM) 1:4 CA-MHB): 10 µM (≈ 3.34 µg/mL); MIC (P. aeruginosa DSM1117; Pseudomonas aeruginosa, DSM1117, pH 7.4, read-out: MIC (μM) CA-MHB): 10 µM (≈ 3.34 µg/mL); MIC (S. aureus DSM2569; Staphylococcus aureus, DSM2569, pH 7.4, read-out: MIC (μM) CA-MHB): 0.25 µM (≈ 0.0836 µg/mL); Regrowth, OD600 at 6h or 8h after dilution into drug-free medium (average) [1, 7]: 0.203; Regrowth, OD600 at 6h or 8h after dilution into drug-free medium (average) [1, 8]: 0.116; Regrowth, OD600 at 6h or 8h after dilution into drug-free medium (average) [1, 9]: 0.094; Regrowth, OD600 at 6h or 8h after dilution into drug-free medium (average) [1, 10]: 0.095; EC50 ([1]; Pseudomonas aeruginosa, DSM1117, pH 7.4): 28 nM
O=C(O)c1cn(C2CC2)c2cc(N3CCNCC3)c(F)cc2c1=O [Ciprofloxacin]	0.125 (≈ 0.0414 µg/mL)	2 (≈ 0.663 µg/mL)	2 (≈ 0.663 µg/mL)	0.0625 (≈ 0.0207 µg/mL)	2 (≈ 0.663 µg/mL)	125	MIC (E. coli CFT073 (UPEC); [11]): 0.25 µM (≈ 0.0828 µg/mL)
